The supplement of paper PMC13380429

Tests used:
Settings in all cases: 72 h
U2OS [1] = test: relative viability EC50 (midpoint between 100% and the lowest measured viability); higher = less toxic
Caco-2 [2] = test: as above
Vero E6 [3] = test: as above
Calu-3 [4] = test: as above
U2OS [5] = test: cell viability relative to DMSO; higher = less toxic
Caco-2 [6] = test: as above
Vero E6 [7] = test: as above
Calu-3 [8] = test: as above
HepG2 [9] = test: as above
U2OS [10] = test: drug sensitivity score (DSS) for viability; higher = more toxic; extreme values may be limits of the assay
Caco-2 [11] = test: as above
Vero E6 [12] = test: as above
Calu-3 [13] = test: as above
HepG2 [14] = test: as above

Row | Compound | relative viability EC50 (U2OS [1]) [µM] | relative viability EC50 (Caco-2 [2]) [µM] | relative viability EC50 (Vero E6 [3]) [µM] | relative viability EC50 (Calu-3 [4]) [µM] | cell viability (U2OS [5]; 1 nM) [%] | cell viability (U2OS [5]; 10 nM) [%] | cell viability (U2OS [5]; 100 nM) [%] | cell viability (U2OS [5]; 1000 nM) [%] | cell viability (U2OS [5]; 10000 nM) [%] | cell viability (Caco-2 [6]; 1 nM) [%] | cell viability (Caco-2 [6]; 10 nM) [%] | cell viability (Caco-2 [6]; 100 nM) [%] | cell viability (Caco-2 [6]; 1000 nM) [%] | cell viability (Caco-2 [6]; 10000 nM) [%] | cell viability (Vero E6 [7]; 1 nM) [%] | cell viability (Vero E6 [7]; 10 nM) [%] | cell viability (Vero E6 [7]; 100 nM) [%] | cell viability (Vero E6 [7]; 1000 nM) [%] | cell viability (Vero E6 [7]; 10000 nM) [%] | cell viability (Calu-3 [8]; 1 nM) [%] | cell viability (Calu-3 [8]; 10 nM) [%] | cell viability (Calu-3 [8]; 100 nM) [%] | cell viability (Calu-3 [8]; 1000 nM) [%] | cell viability (Calu-3 [8]; 10000 nM) [%] | cell viability (HepG2 [9]; 1 nM) [%] | cell viability (HepG2 [9]; 10 nM) [%] | cell viability (HepG2 [9]; 100 nM) [%] | cell viability (HepG2 [9]; 1000 nM) [%] | cell viability (HepG2 [9]; 10000 nM) [%] | drug sensitivity score (U2OS [10]) | drug sensitivity score (Caco-2 [11]) | drug sensitivity score (Vero E6 [12]) | drug sensitivity score (Calu-3 [13]) | drug sensitivity score (HepG2 [14])
1 | N=C(N)NN=C1C=CC(=NNC(N)=S)C=C1 [ambazone] | > 10 | > 10 | > 10 | > 10 | 95 | 94.8 | 97.9 | 99.3 | 95 | 88.4 | 94.9 | 94.6 | 91.2 | 92.7 | 90.9 | 95.1 | 102 | 100 | 103 | 105 | 95.8 | 94.1 | 98.2 | 118 | 97.1 | 95.3 | 102 | 83.4 | 63.2 | 0 | 0 | 0 | 0 | 3.9
2 | Cc1cc(O)c(C(=O)N[C@@H](C(=O)N[C@@H]2C(=O)N3C(C(=O)O)=C(CSc4nnnn4C)CS[C@H]23)c2ccc(O)cc2)cn1 [cefpiramide] | > 10 | > 10 | > 10 | > 10 | 93.4 | 98.3 | 96.5 | 99.5 | 101 | 94.2 | 106 | 116 | 110 | 95.3 | 101 | 94.1 | 100 | 104 | 96.3 | 99 | 102 | 108 | 106 | 98 |  |  |  |  |  | 0 | 0 | 0 | 0 | 
3 | CC(C)(C)NCC(O)c1cc(Cl)c(N)c(Cl)c1 (stereo unspecified) [clenbuterol] | > 10 | > 10 | > 10 | > 10 | 97.6 | 95 | 105 | 98.2 | 96.9 | 93.7 | 89.9 | 103 | 90.8 | 117 | 95.3 | 101 | 97.8 | 104 | 112 | 108 | 85.1 | 100 | 93.7 | 97.4 |  |  |  |  |  | 0 | 0 | 0 | 0 | 
4 | Clc1cccc(Cl)c1NC1=NCCN1 [clonidine] | > 10 | > 10 | > 10 | > 10 | 103 | 103 | 95.9 | 101 | 98.5 | 95.3 | 95.6 | 96.1 | 84.1 | 94 | 95.6 | 101 | 102 | 99.3 | 95.2 | 98.4 | 87.9 | 90.4 | 87 | 88.8 |  |  |  |  |  | 0 | 0 | 0 | 2.3 | 
5 | Nc1ncn([C@H]2C[C@H](O)[C@@H](CO)O2)c(=O)n1 [decitabine] | > 10 | > 10 | > 10 | > 10 | 102 | 102 | 99.9 | 100 | 101 | 97.2 | 88.3 | 82.2 | 89.4 | 88.4 | 103 | 102 | 95.1 | 93 | 93.2 | 109 | 105 | 101 | 107 | 93.5 | 95.8 | 98.6 | 82.6 | 71.9 | 69.8 | 0 | 1.7 | 0 | 0 | 6.6
6 | C[C@]12C=CC(=O)N[C@@H]1CC[C@@H]1[C@@H]2CC[C@]2(C)[C@@H](C(=O)Nc3cc(C(F)(F)F)ccc3C(F)(F)F)CC[C@@H]12 [dutasteride] |  | > 10 |  | > 10 |  |  |  |  |  | 111 | 93 | 105 | 97.4 | 104 |  |  |  |  |  | 111 | 99 | 98.2 | 105 | 106 |  |  |  |  |  |  | 0 |  | 0 | 
7 | FC(F)OC(F)(F)C(F)Cl (stereo unspecified) [enflurane] |  | > 10 | > 10 | > 10 |  |  |  |  |  | 96.9 | 104 | 98.3 | 103 | 107 | 94.7 | 103 | 98.4 | 104 | 103 | 85.1 | 94.2 | 85.6 | 101 | 103 |  |  |  |  |  |  | 0 | 0 | 0 | 
8 | O=C1OC2(c3ccccc31)c1cc(I)c(O)c(I)c1Oc1c2cc(I)c(O)c1I [erythrosine] |  |  |  |  | 94.6 | 91.7 | 97 | 88.7 | 57.3 | 99.2 | 98.7 | 102 | 93.8 | 51.9 | 87.3 | 96.4 | 98.7 | 81.6 | 64.5 | 102 | 104 | 113 | 86.6 | 53.6 | 104 | 109 | 97.6 | 103 | 53.4 | 3.9 | 3.6 | 3.7 | 4.4 | 2.2
9 | Cn1c(=O)c2c(ncn2CCOC(=O)C(C)(C)Oc2ccc(Cl)cc2)n(C)c1=O [etofylline-clofibrate] | > 10 | > 10 | > 10 | > 10 | 98 | 91.9 | 101 | 95.9 | 97.3 | 98 | 100 | 89.4 | 91.4 | 93.9 | 92.8 | 109 | 91.6 | 96.1 | 104 | 96.1 | 98.9 | 93.2 | 94.3 | 89.5 |  |  |  |  |  | 0 | 0.3 | 0 | 0 | 
10 | CC(C)(C(=O)O)c1ccc(C(O)CCCN2CCC(C(O)(c3ccccc3)c3ccccc3)CC2)cc1 (stereo unspecified) [fexofenadine] |  |  |  |  |  |  |  |  |  |  |  |  |  |  |  |  |  |  |  |  |  |  |  |  |  |  |  |  |  | 0 |  | 0 | 0 | 
11 | CC(O)CN1CCN(CC(=O)[O-])CCN(CC(=O)[O-])CCN(CC(=O)[O-])CC1.[Gd+3] (stereo unspecified) [gadoteridol] | > 10 | > 10 | > 10 | > 10 | 93.2 | 103 | 98.5 | 99.1 | 103 | 103 | 110 | 96 | 142 | 92.1 | 94.7 | 93.1 | 110 | 93.1 | 105 | 101 | 91.2 | 95.3 | 102 | 96.1 |  |  |  |  |  | 0 | 0 | 0 | 0 | 
12 | CCC(=O)O[C@H](CC(=O)O)C[N+](C)(C)C [levocarnitine-propionate] |  | > 10 | > 10 | > 10 |  |  |  |  |  | 94.7 | 103 | 98.7 | 108 | 98.5 | 106 | 105 | 99.2 | 100 | 104 | 87.9 | 108 | 97.9 | 100 | 85.8 |  |  |  |  |  |  | 0 | 0 | 0.2 | 
13 | CN(C)CCN(Cc1cccs1)c1ccccn1 [methapyrilene] | > 10 | > 10 | > 10 | > 10 | 102 | 102 | 97.9 | 102 | 96.7 | 103 | 95.2 | 94.2 | 104 | 107 | 98.1 | 99.9 | 101 | 96.4 | 96.3 | 101 | 101 | 92.6 | 89.3 | 89.7 |  |  |  |  |  | 0 | 0 | 0 | 0.3 | 
14 | COc1c(N2C[C@@H]3CCCN[C@@H]3C2)c(F)cc2c(=O)c(C(=O)O)cn(C3CC3)c12 [moxifloxacin] |  |  |  |  |  |  |  |  |  |  |  |  |  |  |  |  |  |  |  |  |  |  |  |  |  |  |  |  |  | 0 |  | 0 | 0 | 0
15 | CO[C@@H]1[C@@H](OC(N)=O)[C@@H](O)[C@H](Oc2ccc3c(O)c(NC(=O)c4ccc(O)c(CC=C(C)C)c4)c(=O)oc3c2C)OC1(C)C [novobiocin] |  | > 10 |  | > 10 |  |  |  |  |  | 124 | 92.9 | 109 | 108 | 112 |  |  |  |  |  | 98.1 | 101 | 98.8 | 93.6 | 81.2 |  |  |  |  |  |  | 0 |  | 1.1 | 
16 | CCOC(=O)c1ccc(OCCC2CCN(c3ccc(C)nn3)CC2)cc1 [pirodavir] |  |  |  |  |  |  |  |  |  |  |  |  |  |  |  |  |  |  |  |  |  |  |  |  |  |  |  |  |  | 0 |  | 0 | 0 | 0
17 | Nc1ccc(S(=O)(=O)Nc2ccccn2)cc1 [sulfapyridine] |  |  |  |  |  |  |  |  |  |  |  |  |  |  |  |  |  |  |  |  |  |  |  |  |  |  |  |  |  | 0 |  | 0 | 0 | 0
18 | CC/C(=C(\c1ccccc1)c1ccc(OCCN(C)C)cc1)c1ccccc1 [tamoxifen] | > 10 |  |  |  | 94.6 | 102 | 93 | 97.2 | 87.6 |  |  |  |  |  | 98.9 | 90 | 93.3 | 86.9 | 58.9 | 103 | 95.5 | 94.7 | 86 | 52.7 | 105 | 106 | 105 | 102 | 73.3 | 0 |  | 3.4 | 4.2 | 0.9
19 | N#C/C(=C\c1ccc(O)c(O)c1)C(=O)Nc1ccccc1 [tyrphostin-AG-494] | > 10 | > 10 | > 10 | > 10 | 105 | 102 | 99.2 | 97.3 | 93.1 | 110 | 99.8 | 104 | 95.7 | 88.3 | 104 | 100 | 104 | 105 | 90.6 | 93.5 | 102 | 95.1 | 101 | 107 | 101 | 102 | 98.6 | 110 | 54.6 | 0 | 0.2 | 0 | 0 | 1.8
20 | COc1cc2/c(=N/c3ccc(Br)cc3F)nc[nH]c2cc1OCC1CCN(C)CC1 [vandetanib] |  |  | 1.3 | 1.24 |  |  |  |  |  | 109 | 105 | 86 | 88.4 | 57.2 | 104 | 100 | 98.3 | 72.9 | 20.6 | 101 | 95.3 | 85.7 | 66.2 | 13.4 | 113 | 106 | 110 | 96.7 | 74 |  | 3.3 | 8.2 | 8.7 | 1.5
